From US7666685B2, “Screening method for identification of compounds suitable for treatment of oral cavity malodor associated with consumption of garlic” (Wm. Wrigley Jr. Company, priority 2005, dated 2010)
Several values for one entry are separate records, joined by “and”; a condition that tells them apart may be missing. Equal values may be shown once.

Experiments:
[1] = In vitro dose response: SPME GC/MS headspace analysis of raw macerated garlic solution treated with active; conditions: for GC/MS Peak Area (diallyl disulfide headspace): individual runs; for GC/MS Peak Area (diallyl disulfide headspace), Mean: mean of 3 runs; for reduction of diallyl disulfide headspace concentration: vs control garlic solution
Description: A model solution containing raw chopped garlic (20 g) dispersed in water (200 ml) was prepared by blending in a Waring commercial blender (Waring Commercial, Torrington, Conn.) at low power for 30 seconds and at high power for 30 seconds. The resulting solution was homogeneous with no visible garlic particles present.
A portion of the raw, macerated garlic solution (5 g) was treated with different levels of potential ameliorating actives and the headspace was extracted and analyzed (as described in greater detail below) to determine the effect of the potential actives on the headspace concentration of compounds contributing to oral cavity malodor associated with consumption of garlic.
Headspace of a vessel containing a portion of the garlic solution (5 ml) treated with a potential active was extracted for 60 minutes utilizing solid phase microextraction (SPME) with a 75 μm Carboxen-polydimethyl siloxane fiber (Supelco, Bellefonte, Pa.).
The SPME fiber assembly was injected into an Agilent 6890 gas chromatograph (GC)/mass spectrometer (MS) modified for multidimensional analyses and equipped with a sniff port and Aroma Trax software (Microanalytics, Round Rock, Tex.). Fibers remained in the GC injection port for five minutes following injection.
The GC/MS operating parameters included a He carrier gas flow rate of 6.5 ml/min, split mode (2:1) and the injector set at 250° C. Column 1 was 12 meter, 0.53 mm I.D. with a methyl silica stationary phase. Column 2 was a 25 meter, 0.53 mm DB-5 capillary column. The oven was programmed to hold at 40° C. for 3 minutes and to heat to 220° C. at a rate of 7° C./min and hold at 220° C. for 20 minutes. The MS operated in Electron Impact Mode (E.I.) at 70 eV.
A model solution containing raw chopped garlic dispersed in water was prepared as described in Example 1. […] For comparison purposes, the diallyl disulfide content of the headspace of a control model solution (i.e., no menthone added) was also analyzed.

[2] = Sensory analysis: ten panelists rate the odor intensity of the raw macerated garlic solution with added active; conditions: for Odor Intensity (0–100): individual panelists, 0=no odor, 100=very strong odor; for Odor Intensity (0–100), Mean: mean of N = 10 panelists
Description: Sensory analysis of the solutions utilized for analytical analyses of the raw garlic described above was conducted by ten panelists who evaluated the odor intensity of the model solution (raw macerated garlic) with and without the different levels of added active. Odor intensity was assessed utilizing a 0-100 point scale ballot with 0=no odor and 100=very strong odor.

## CC(C)[C@@H]1CC[C@@H](C)CC1=O [menthone]
[1]; 0.3 mg/g garlic solution
  GC/MS Peak Area (diallyl disulfide headspace): 46610414 and 58241626 and 60764744
  GC/MS Peak Area (diallyl disulfide headspace), Mean: 55205595
[1]; 1 mg/g garlic solution
  GC/MS Peak Area (diallyl disulfide headspace): 20835556 and 16829160 and 16827232
  GC/MS Peak Area (diallyl disulfide headspace), Mean: 18163983
[1]; 3 mg/g garlic solution
  GC/MS Peak Area (diallyl disulfide headspace): 6746448 and 4757863 and 5868573
  GC/MS Peak Area (diallyl disulfide headspace), Mean: 5790961.3
[1]; Example 3: 1.63 mg in 2.5 g model solution, at each headspace analysis interval (5 hour intervals)
  less diallyl disulfide in headspace than control model solution: at least 50%
[2]; 0.33 mg/g
  Odor Intensity (0–100): 1 (2×) and 6 and 7 (4×) and 5 and 8 and 3
  Odor Intensity (0–100), Mean: 5.2
[2]; 1 mg/g
  Odor Intensity (0–100): 1 and 2 (6×) and 4 (2×) and 6
  Odor Intensity (0–100), Mean: 2.7
[2]; 3 mg/g
  Odor Intensity (0–100): 2 (2×) and 0 (2×) and 4 (2×) and 3 (2×) and 1 (2×)
  Odor Intensity (0–100), Mean: 2
[2]; active concentration 0.3 mg/g
  reduction of odor of raw macerated garlic in water (sensory): 48%
[2]; active concentration 3 mg/g
  reduction of odor of raw macerated garlic in water (sensory): 80%

## caryophyllene
[1]; 0.1 mg/g garlic solution
  GC/MS Peak Area (diallyl disulfide headspace): 52155883 and 49803124 and 56316479
  GC/MS Peak Area (diallyl disulfide headspace), Mean: 52758495
[1]; 0.24 mg/g garlic solution
  GC/MS Peak Area (diallyl disulfide headspace): 67591321 and 69400527 and 61729644
  GC/MS Peak Area (diallyl disulfide headspace), Mean: 66240497
[1]; 0.4 mg/g garlic solution
  GC/MS Peak Area (diallyl disulfide headspace): 93422075 and 91167385 and 94368797
  GC/MS Peak Area (diallyl disulfide headspace), Mean: 92986086
[1]; active concentration 0.1 mg/g
  reduction of diallyl disulfide headspace concentration: 34%
[1]; active concentration 0.4 mg/g
  reduction of diallyl disulfide headspace concentration: 63%
[2]; 0.1 mg/g
  Odor Intensity (0–100): 5 (3×) and 6 (2×) and 2 and 4 (3×) and 7
  Odor Intensity (0–100), Mean: 4.8
[2]; 0.2 mg/g
  Odor Intensity (0–100): 4 (2×) and 5 (3×) and 9 (2×) and 8 and 3 (2×)
  Odor Intensity (0–100), Mean: 5.5
[2]; 0.4 mg/g
  Odor Intensity (0–100): 2 and 5 and 3 (3×) and 4 (3×) and 0 and 1
  Odor Intensity (0–100), Mean: 2.9
[2]; active concentration 0.1 mg/g
  decrease of odor intensity (sensory): 52%
[2]; active concentration 0.4 mg/g
  decrease of odor intensity (sensory): 71%
